Experimental data from patent US20050137145A1, “Metabolites of 1-dimethylamino-3-(3-methoxy-phenyl)-2-methyl-pentan-3-ol and their use in the treatment of urinary incontinence” (Gruenenthal GmbH, priority 2002, published 2005).
Marks after values point to notes of the source that are not given here.

Test system: naive female Sprague-Dawley rats
Assay: Cystometry test system on the conscious naive rat
Type: in vivo
Settings: for BC bladder capacity (change relative to the preliminary value) / ICI inter-contraction interval (change relative to the preliminary value) / TP threshold pressure (change relative to the preliminary value): at maximum activity, mean of 3 miction cycles; for effect on bladder regulation (in words): summary of the cystometry results, i.v.
Experimental: Cystometric investigations were carried out on naive female Sprague-Dawley rats according to the method of Ishizuka et al. ((1997), Naunyn-Schmiedeberg's Arch. Pharmacol. 355: 787-793). Three days after the implantation of bladder and venous catheters, the animals, which were free to move, were studied in the conscious state. The bladder catheter was attached to a pressure transducer and an injection pump. The animals were placed in metabolic cages which allowed the volume of urine to be measured. Physiological saline solution was infused into the emptied bladder (10 ml/h) and the bladder pressure and miction volume were recorded continuously. After a stabilization phase, a 20-minute phase characterised by normal, reproducible miction cycles was recorded. The following parameters, inter alia, were determined: • threshold pressure (TP, bladder pressure immediately before miction), • bladder capacity (BC, residual volume after previous miction plus volume of solution infused during the filling phase), • inter-contraction interval (ICI, the time interval between mictions).
An increase in the threshold pressure (TP) indicates an important therapeutic activity in one of the indications according to the invention. The inter-contraction interval (ICI) is also an important parameter for measuring the physiological effectiveness of a substance in the treatment of urinary incontinence, as is the bladder capacity (BC). Because the causes of the symptoms of these disorders are highly heterogeneous, it is not necessary for all three parameters to be influenced positively in order for effectiveness to exist. It is, therefore, entirely satisfactory for a positive effect to be determined in only one of these parameters in order to be usable in urinary incontinence or increased urinary urgency.
After three reproducible miction cycles had been recorded as the preliminary value, the test substances 1 (1.0 mg/kg), 2 (0.1; 0.3 and 0.5 mg/kg), 21 (0.5 mg/kg) and 7 (0.3 mg/kg) were administered i.v. in the vehicle=0.9% NaCl and the effect on the cystometric parameters was recorded for 90 to 120 minutes. At the maximum activity, the mean of 3 miction cycles was determined and indicated as the percentage change relative to the preliminary value (Table 1).

| Compound | BC bladder capacity (change relative to the preliminary value) (1.0 mg/kg i.v.) | ICI inter-contraction interval (change relative to the preliminary value) (1.0 mg/kg i.v.) | TP threshold pressure (change relative to the preliminary value) (1.0 mg/kg i.v.) | BC bladder capacity (change relative to the preliminary value) (0.3 mg/kg i.v.) | ICI inter-contraction interval (change relative to the preliminary value) (0.3 mg/kg i.v.) | TP threshold pressure (change relative to the preliminary value) (0.3 mg/kg i.v.) | BC bladder capacity (change relative to the preliminary value) (0.1 mg/kg i.v.) | ICI inter-contraction interval (change relative to the preliminary value) (0.1 mg/kg i.v.) | TP threshold pressure (change relative to the preliminary value) (0.1 mg/kg i.v.) | BC bladder capacity (change relative to the preliminary value) (0.5 mg/kg i.v.) | ICI inter-contraction interval (change relative to the preliminary value) (0.5 mg/kg i.v.) | TP threshold pressure (change relative to the preliminary value) (0.5 mg/kg i.v.) | effect on bladder regulation (in words) |
| --- | --- | --- | --- | --- | --- | --- | --- | --- | --- | --- | --- | --- | --- |
| CC[C@](O)(c1cccc(OC)c1)[C@H](C)CN(C)C.Cl (racemic) [Compound 1, (2RS,3RS)-1-Dimethylamino-3-(3-methoxy-phenyl)-2-methyl-pentan-3-ol, hydrochloride] | +31%*** | +42% | +94%** |  |  |  |  |  |  |  |  |  |  |
| CCC(O)(c1cccc(O)c1)C(C)CN(C)C.Cl (racemic) [Compound 7, (2RS,3RS)-3-(3-Dimethylamino-1-ethyl-1-hydroxy-2-methyl-propyl)-phenol, hydrochloride] |  |  |  | +32%* | +28%* | +95%** |  |  |  |  |  |  |  |
| CC[C@](O)(c1cccc(OC)c1)[C@H](C)CN(C)C.Cl [Compound 2, (+)-(2R,3R)-1-Dimethylamino-3-(3-methoxy-phenyl)-2-methyl-pentan-3-ol, hydrochloride] |  |  |  | +33%* | +28%* | +122%** | +7.8% | +15.6% | +28.5%** | +20.6%* | +28.6%** | +77.5%** | very effective |
| CC[C@@](O)(c1cccc(OC)c1)[C@@H](C)CN(C)C.Cl [Compound 21, (−)-(2S,3S)-1-Dimethylamino-3-(3-methoxy-phenyl)-2-methyl-pentan-3-ol, hydrochloride] |  |  |  |  |  |  |  |  |  | +3% | +10% | −1.1% | does not make such a strong contribution to the action |
